Measured values taken from patent US11214803B2, “Modulators of YAP1 expression” (Ionis Pharmaceuticals, Inc., priority 2019, dated 2022).
Strand notation (5' to 3'): a small letter for the sugar, then the base; units joined by * are phosphorothioate-linked, units joined directly phosphodiester-linked; [ ] holds rarer units or linkages, { } end groups; capitals alone tell only the bases. k = constrained ethyl (cEt); [5mC] = 5-methylcytosine; d = 2'-deoxy (DNA)

Each substance was assayed on Yap1 mRNA (assay: Antisense inhibition of human Yap1 in A-431 cells by cEt gapmers, single dose (Example 2, RTS4814)). Conditions: Table 18; A-431 cells, 5,000 cells per well, free uptake, 2,000 nM modified oligonucleotide, approx. 48 hours; RTS4814; normalized to RIBOGREEN; Yap1 mRNA as percent of untreated control.
Assay type: cell-based
Outline: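 Free uptake, 2,000 nM, ~48 h, A-431 at 5,000 cells/well. Readout: RT-qPCR (RTS4814), RIBOGREEN-normalized, % UTC. 16-mer 3-10-3 cEt gapmers, full PS backbone, all C as 5-methylcytosine.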

In order of rising “YAP1 (% UTC)” value:
1. 1075876 (kG*kT*kA*dT*dT*dT*dA*dT*dG*dA*dT*dG*dA*kT*kT*k[5mC]; antisense) [Compound 1075876]  6 % UTC
2. 1075908 (kA*kA*kT*dA*dA*dG*dG*dA*dG*dT*dA*dG*dG*kT*kG*kG; antisense) [Compound 1075908]  50 % UTC
3. 1075844 (kT*kA*kT*dT*dA*dA*dA*dT*dA*dA*dG*dA*dG*k[5mC]*kT*k[5mC]; antisense) [Compound 1075844]  84 % UTC
4. 1075812 (k[5mC]*kA*kT*dT*dA*dA*dG*dA*dT*dT*dT*dT*dA*kA*k[5mC]*k[5mC]; antisense) [Compound 1075812]  103 % UTC

Same assay, conditions: Table 19; A-431 cells, 5,000 cells per well, free uptake, 2,000 nM modified oligonucleotide, approx. 48 hours; RTS4814; normalized to RIBOGREEN; Yap1 mRNA as percent of untreated control

In order of rising “YAP1 (% UTC)” value:
1. 1075813 (kA*k[5mC]*kT*dA*dA*dT*dA*dT*dG*d[5mC]*dA*dA*d[5mC]*kT*k[5mC]*kT; antisense) [Compound 1075813]  4 % UTC
2. 1075845 (kG*kT*kG*dG*dA*dA*dA*dA*dG*dT*dA*dT*dG*kA*kT*k[5mC]; antisense) [Compound 1075845]  19 % UTC
3. 1075877 (k[5mC]*kT*kG*dG*dA*dA*dA*dA*dG*dT*dA*d[5mC]*dA*kT*kT*k[5mC]; antisense) [Compound 1075877]  28 % UTC
4. 1075909 (kA*kA*kA*dT*dA*dA*dG*dG*dA*dG*dT*dA*dG*kG*kT*kG; antisense) [Compound 1075909]  93 % UTC

Same assay, conditions: Table 20; Yap1 mRNA, percent of untreated control; 3-10-3 cEt gapmers targeting SEQ ID NO.: 1 and 2

In order of rising “YAP1 (% UTC)” value:
1. 1075878 (kG*kA*kT*dT*dA*dT*d[5mC]*dA*dA*dG*dT*dA*dG*kT*kT*kT; antisense) [Compound 1075878]  35 % UTC
2. 1075814 (kT*kA*kT*dA*dA*dA*dG*d[5mC]*dA*dG*dG*dG*d[5mC]*kA*kT*kT; antisense) [Compound 1075814]  47 % UTC
3. 1075910 (kG*kA*kA*dA*dT*dA*dA*dG*dG*dA*dG*dT*dA*kG*kG*kT; antisense) [Compound 1075910]  93 % UTC
4. 1075846 (kG*kA*kT*dT*dA*dA*dG*dA*dG*d[5mC]*d[5mC]*dT*dA*kT*k[5mC]*kT; antisense) [Compound 1075846]  96 % UTC

Same assay, conditions: Table 21; Yap1 mRNA, percent of untreated control; 3-10-3 cEt gapmers targeting SEQ ID NO.: 1 and 2

In order of falling “YAP1 (% UTC)” value:
1. 1075879 (kG*kA*kA*dT*dA*dA*dA*dG*dA*dA*dG*dT*d[5mC]*kA*k[5mC]*k[5mC]; antisense) [Compound 1075879]  77 % UTC
2. 1075911 (kT*kG*kA*d[5mC]*dA*dA*dA*dA*d[5mC]*dA*dG*dG*d[5mC]*kA*k[5mC]*k[5mC]; antisense) [Compound 1075911]  41 % UTC
3. 1075815 (kG*kT*kA*dT*dA*dA*dA*dG*d[5mC]*dA*dG*dG*dG*k[5mC]*kA*kT; antisense) [Compound 1075815]  36 % UTC
4. 1075847 (k[5mC]*kT*kT*dT*dA*dT*dA*dG*d[5mC]*dA*dG*dA*dT*kG*k[5mC]*k[5mC]; antisense) [Compound 1075847]  14 % UTC

Same assay, conditions: Table 22; Yap1 mRNA as percent of untreated control; 3-10-3 cEt gapmers; single dose

In order of falling “YAP1 (% UTC)” value:
1. 1075880 (kA*kT*kT*dA*dA*d[5mC]*dT*dA*d[5mC]*dA*d[5mC]*d[5mC]*dA*k[5mC]*kG*kA; antisense) [Compound 1075880]  30 % UTC
2. 1075912 (kA*kG*kT*dT*dA*dT*dA*d[5mC]*dA*d[5mC]*dA*dA*d[5mC]*k[5mC]*kA*k[5mC]; antisense) [Compound 1075912]  13 % UTC
3. 1075848 (kG*kA*kT*dT*dA*d[5mC]*dA*dA*dT*dG*dG*dG*d[5mC]*kA*kG*kT; antisense) [Compound 1075848]  9 % UTC
4. 1075816 (kT*kA*kG*dT*dA*dT*dA*dA*dA*dG*d[5mC]*dA*dG*kG*kG*k[5mC]; antisense) [Compound 1075816]  7 % UTC

Same assay, conditions: Table 23; Yap1 mRNA as percent of untreated control; 3-10-3 cEt gapmers; single dose

In order of rising “YAP1 (% UTC)” value:
1. 1075881 (kG*kA*kT*dT*dA*dA*d[5mC]*dT*dA*d[5mC]*dA*d[5mC]*d[5mC]*kA*k[5mC]*kG; antisense) [Compound 1075881]  23 % UTC
2. 1075913 (k[5mC]*k[5mC]*k[5mC]*d[5mC]*dT*dA*dT*dA*d[5mC]*dT*dT*dT*dT*kT*kG*kA; antisense) [Compound 1075913]  46 % UTC
3. 1075849 (k[5mC]*kT*kA*dG*dA*dA*d[5mC]*dA*d[5mC]*dG*d[5mC]*dT*dG*kA*kT*kG; antisense) [Compound 1075849]  55 % UTC
4. 1075817 (k[5mC]*k[5mC]*kT*dA*dA*dA*dG*dA*dA*dG*dT*d[5mC]*dT*kT*kG*kG; antisense) [Compound 1075817]  100 % UTC

Same assay, conditions: Table 24; Yap1 mRNA as percent of untreated control; 3-10-3 cEt gapmers targeting SEQ ID NO.: 1, and 2

In order of falling “YAP1 (% UTC)” value:
1. 1075882 (kG*kA*kA*dA*dA*dT*d[5mC]*d[5mC]*dT*dG*dA*dT*dT*kA*kA*k[5mC]; antisense) [Compound 1075882]  73 % UTC
2. 1075818 (k[5mC]*kA*kT*dA*dA*d[5mC]*dT*dT*dA*dG*dA*dA*d[5mC]*k[5mC]*kA*kT; antisense) [Compound 1075818]  35 % UTC
3. 1075786 (k[5mC]*kT*kA*dT*dA*dT*dT*dG*dA*dT*dT*d[5mC]*d[5mC]*kA*kG*kA; antisense) [Compound 1075786]  19 % UTC

Same assay, conditions: Table 25; Yap1 mRNA as percent of untreated control; 3-10-3 cEt gapmers targeting SEQ ID NO.: 1, and 2

In order of rising “YAP1 (% UTC)” value:
1. 1075819 (kG*kT*kA*dT*dA*dT*d[5mC]*d[5mC]*dG*dT*dT*d[5mC]*dT*k[5mC]*kA*kT; antisense) [Compound 1075819]  2 % UTC
2. 1075883 (kA*k[5mC]*kT*dA*dA*dA*dA*d[5mC]*d[5mC]*dA*dT*dT*dT*kG*k[5mC]*k[5mC]; antisense) [Compound 1075883]  20 % UTC
3. 1075787 (k[5mC]*kT*kT*dA*dA*dG*dG*dA*dT*dT*dG*dG*d[5mC]*kT*kA*kT; antisense) [Compound 1075787]  28 % UTC
4. 1075851 (kG*k[5mC]*k[5mC]*dG*dA*dA*dT*dA*dT*dG*dG*dG*dA*kA*kA*kA; antisense) [Compound 1075851]  70 % UTC

Same assay, conditions: Table 32; Yap1 mRNA, percent of untreated control; 3-10-3 cEt gapmers targeting SEQ ID NO.: 1, and 2

In order of falling “YAP1 (% UTC)” value:
1. 1075890 (antisense kG*kA*kT*dT*dA*dA*dA*dA*dG*dT*dA*dG*dG*k[5mC]*k[5mC]*k[5mC]) [compound 1075890]  92 % UTC
2. 1075794 (k[5mC]*kA*kT*dA*dA*dT*dG*dA*dA*dT*dG*dT*dG*kG*kG*kT; antisense) [compound 1075794]  38 % UTC
3. 1075826 (kT*kA*kG*dG*dG*dA*dA*dA*dA*d[5mC]*d[5mC]*dA*dT*kA*kG*k[5mC]; antisense) [compound 1075826]  23 % UTC
4. 1075858 (antisense k[5mC]*k[5mC]*kT*dT*dA*dA*dA*d[5mC]*dA*dA*dT*d[5mC]*d[5mC]*k[5mC]*kT*kA) [compound 1075858]  23 % UTC

Same assay, conditions: Table 33; Yap1 mRNA, percent of untreated control; 3-10-3 cEt gapmers targeting SEQ ID NO.: 1, and 2

In order of falling “YAP1 (% UTC)” value:
1. 1075891 (antisense kA*kG*kA*dT*dT*dA*dA*dA*dA*dG*dT*dA*dG*kG*k[5mC]*k[5mC]) [compound 1075891]  89 % UTC
2. 1075795 (kG*kT*kA*dA*dT*dT*dA*dT*dA*dT*dA*d[5mC]*d[5mC]*k[5mC]*kA*k[5mC]; antisense) [compound 1075795]  66 % UTC
3. 1075827 (kA*kT*kA*d[5mC]*dT*dA*dT*dA*d[5mC]*d[5mC]*dT*dA*dA*kG*kG*kA; antisense) [compound 1075827]  60 % UTC
4. 1075859 (antisense kA*k[5mC]*kT*dT*dA*dT*d[5mC]*dA*d[5mC]*dT*d[5mC]*dT*dG*k[5mC]*k[5mC]*k[5mC]) [compound 1075859]  20 % UTC

Same assay, conditions: Yap1 mRNA as percent of untreated control; A-431 cells; 3-10-3 cEt gapmers targeting SEQ ID NO.: 1, and 2; Table 30

In order of falling “YAP1 (% UTC)” value:
1. 1075856 (antisense k[5mC]*k[5mC]*kT*dA*dA*dT*d[5mC]*dA*dA*dG*dT*dT*d[5mC]*kT*kG*k[5mC]) [compound 1075856]  40 % UTC
2. 1075888 (antisense kA*k[5mC]*kT*dT*dA*dA*dA*d[5mC]*dT*dT*dG*dA*dG*kG*kG*kA) [compound 1075888]  22 % UTC

Same assay, conditions: Yap1 mRNA as percent of untreated control; A-431 cells; 3-10-3 cEt gapmers targeting SEQ ID NO.: 1, and 2; Table 31

In order of rising “YAP1 (% UTC)” value:
1. 1075793 (k[5mC]*kA*kT*dT*dA*dG*dT*dT*dG*d[5mC]*d[5mC]*d[5mC]*dT*kG*kA*k[5mC]; antisense) [compound 1075793]  31 % UTC
2. 1075825 (k[5mC]*k[5mC]*k[5mC]*d[5mC]*dT*dA*dA*dA*dG*dA*dA*dG*dA*kT*kT*kT; antisense) [compound 1075825]  44 % UTC
3. 1075857 (antisense k[5mC]*kT*kT*dA*dA*dA*d[5mC]*dA*dA*dT*d[5mC]*d[5mC]*d[5mC]*kT*kA*kA) [compound 1075857]  69 % UTC
4. 1075889 (antisense kA*kT*kT*dA*dA*dA*dA*dG*dT*dA*dG*dG*d[5mC]*k[5mC]*k[5mC]*kT) [compound 1075889]  71 % UTC
